“Also recorded” adds a separate entry of the source.
Test system: lung mucus collected from patients with cystic fibrosis
Assay: Macrorheology of cystic fibrosis lung mucus after treatment with reducing agents
Parameters: species or system human
Conditions: 30 min at 37° C.; for Viscosity of CF mucus after treatment: frequency sweep at 2% strain, FIG. 8
Protocol: In order to determine the mucolytic potential of thiol-functionalized polyglycerol derivatives the rheological properties of lung mucus, which was collected from patients with cystic fibrosis, were determined before and after treatment with different reducing or control agents. In addition, mucus from a healthy donor was used as control. Rheological measurements can be generally used to determine both elastic and viscous material components. Clinical samples were obtained freshly from cystic fibrosis (CF) patients at Charité Berlin and put directly on ice after collection. Then, the samples were mixed with a protease inhibitor cocktail (Roche) and aliquoted in 150 μl portions. The samples were then treated with different concentrations of freshly prepared reducing agents for 30 min at 37° C. Control samples were kept on ice throughout the incubation time or treated with phosphate-buffered saline (PBS) and incubated for 30 min at 37° C. After the incubation time all samples were kept on ice until use for the macrorheological studies. Here, a Kinexus instrument (Malvern) with a cone-and-plate setup was used. The cone geometry was 20 mm diameter and a […] angle. Each sample was run with an amplitude sweep mode at an oscillatory frequency of 1 Hz to determine the linear viscoelastic regime. In order to obtain viscosity parameters, measurements were repeated at 2% stain in a frequency sweep mode.

SMILES	Viscosity of CF mucus after treatment	Elastic modulus (G') of CF mucus after treatment (amplitude sweep at 1 Hz, FIG. 7)
O[C@H](CS)[C@H](O)CS (racemic) [DTT, Dithiothreitol]	reduces the viscosity of CF mucus to level significantly below the viscosity level of mucus from healthy individuals; also recorded: completely destroys the viscosity properties of mucus	–
CC(=O)N[C@@H](CS)C(=O)O [NAC, N-acetylcysteine]	does not show any enhanced mucolytic activity than PBS	comparably slight reduction of the elastic modulus like a treatment with physiological phosphate buffer (PBS)
